Where two headings read alike, the source gives them in different places.
Details: 16-membered ring

## Cc1cc2c(cnn2C2CCCCO2)c2c1CCCn1ncc(n1)C1CCCN(C1)c1nc(OC[C@@]34CCCN3C[C@H](F)C4)nc3c(F)c-2ncc13 (some centres unmarked)
From Cc1cc2c(cnn2C2CCCCO2)c(-c2ncc3c(N4CCCC(c5cn[nH]n5)C4)nc(OC[C@@]45CCCN4C[C@H](F)C5)nc3c2F)c1CCCCl, other bond, K2CO3/TBAI, MeCN, 6.9 mM, 85.0 °C
  ring closure, isolated yield: 31%

## Cc1cc2c(cnn2C2CCCCO2)c2c1CCC=CCCC1(O)CCCN(C1)c1nc(OC[C@@]34CCCN3C[C@H](F)C4)nc3c(F)c-2ncc13 (some centres unmarked)
From C=CCCc1c(C)cc2c(cnn2C2CCCCO2)c1-c1ncc2c(N3CCCC(O)(CCC=C)C3)nc(OC[C@@]34CCCN3C[C@H](F)C4)nc2c1F, rcm bond, Hoveyda-Grubbs II (20 mol%)/TsOH, DCE, 1.6 mM, 80.0 °C
  ring closure, isolated yield: 71%

## Cc1cc2c(cnn2C2CCCCO2)c2c1CC=CCOC[C@@H]1CCCN(C1)c1nc(OC[C@@]34CCCN3C[C@H](F)C4)nc3c(F)c-2ncc13 (mixture of isomers)
From C=CCOC[C@@H]1CCCN(c2nc(OC[C@@]34CCCN3C[C@H](F)C4)nc3c(F)c(-c4c(CC=C)c(C)cc5c4cnn5C4CCCCO4)ncc23)C1, rcm bond, Hoveyda-Grubbs II/TsOH, 1,2-dichloroethane, 2.1 mM, 80.0 °C
  ring closure, isolated yield: 21%

## O[C@@H]1C[C@@H]2COCCCCc3c(Cl)cc4[nH]ncc4c3-c3ncc4c(nc(OC[C@@]56CCCN5C[C@H](F)C6)nc4c3F)N(C1)C2 (mixture of isomers)
From Oc1nc(OC[C@@]23CCCN2C[C@H](F)C3)nc2c(F)c(-c3c(CCCCOC[C@@H]4CNC[C@H](O)C4)c(Cl)cc4[nH]ncc34)ncc12, snar bond, BroP/DIEA, MeCN/DMSO, 4.7 mM, 25.0 °C
  ring closure, isolated yield: 25%

## CC(C)(C)OC(=O)n1ncc2c3c(ccc21)OCCCC(=O)O[C@@H]1CCCN(C1)c1nc(OC[C@@]24CCCN2C[C@H](F)C4)nc2c(F)c-3ncc12
From CC(C)(C)OC(=O)n1ncc2c(-c3ncc4c(N5CCC[C@@H](OC(=O)CCCBr)C5)nc(OC[C@@]56CCCN5C[C@H](F)C6)nc4c3F)c(O)ccc21, ether bond, K2CO3, DMF, 17.5 mM
  ring closure, isolated yield: 24%

Reference: patent publication US20240294551A1 (AMGEN INC., priority 2022, published 2024)
